ChEMBL document CHEMBL1139259, “Molecular modeling, synthesis, and activity studies of novel biaryl and fused-ring BACE1 inhibitors” (Bioorg Med Chem Lett, 2009)
pIC50: −log10 of the molar value.

What was measured:
Beta-secretase 1 = Beta-secretase 1 (Homo sapiens, UniProt P56817)
Description: Inhibition of BACE1 expressed in human 293T cells

Beta-secretase 2 = target: T1, Beta-secretase 2 (Homo sapiens, UniProt Q9Y5Z0); test: Inhibition of BACE2 expressed in human 293T cells; type: cell-based
T1 sequence (Q9Y5Z0 whole entry): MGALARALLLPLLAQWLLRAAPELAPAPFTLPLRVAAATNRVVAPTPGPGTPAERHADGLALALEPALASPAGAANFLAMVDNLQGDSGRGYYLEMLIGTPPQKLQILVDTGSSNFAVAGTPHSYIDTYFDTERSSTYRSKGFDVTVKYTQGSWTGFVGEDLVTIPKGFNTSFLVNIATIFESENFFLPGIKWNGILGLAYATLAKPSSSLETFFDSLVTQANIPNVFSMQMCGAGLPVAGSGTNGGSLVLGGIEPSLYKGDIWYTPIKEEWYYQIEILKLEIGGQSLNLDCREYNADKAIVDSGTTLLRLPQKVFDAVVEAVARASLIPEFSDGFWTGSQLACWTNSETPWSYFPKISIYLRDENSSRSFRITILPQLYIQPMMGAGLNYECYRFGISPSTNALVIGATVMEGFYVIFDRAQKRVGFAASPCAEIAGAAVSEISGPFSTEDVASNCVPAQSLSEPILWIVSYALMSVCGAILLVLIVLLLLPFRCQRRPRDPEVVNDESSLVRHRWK

N2a = test: Reduction of amyloid beta40 level in mouse N2A cells expressing Swedish mutant human APP695 at 10 uM after 24 hrs by ELISA; type: functional; set-up: scale not given: the % may be the effect or the level left

Chain of Beta-secretase 1 (P56817 whole entry): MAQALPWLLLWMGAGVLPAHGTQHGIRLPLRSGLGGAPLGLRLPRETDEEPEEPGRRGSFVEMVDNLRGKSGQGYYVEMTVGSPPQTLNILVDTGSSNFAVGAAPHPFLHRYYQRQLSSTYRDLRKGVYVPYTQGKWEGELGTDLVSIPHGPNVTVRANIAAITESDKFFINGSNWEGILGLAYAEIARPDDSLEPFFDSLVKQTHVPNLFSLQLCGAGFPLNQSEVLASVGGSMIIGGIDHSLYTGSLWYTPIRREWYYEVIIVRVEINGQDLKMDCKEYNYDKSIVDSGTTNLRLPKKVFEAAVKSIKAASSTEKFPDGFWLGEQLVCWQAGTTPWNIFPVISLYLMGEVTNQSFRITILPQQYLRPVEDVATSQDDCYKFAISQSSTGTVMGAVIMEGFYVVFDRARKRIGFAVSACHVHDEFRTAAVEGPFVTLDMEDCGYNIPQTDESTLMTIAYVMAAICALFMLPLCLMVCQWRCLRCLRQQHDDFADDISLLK

| SMILES | pIC50 (Beta-secretase 1) | pIC50 (Beta-secretase 2) | Activity (N2a) |
| --- | --- | --- | --- |
| C[C@@H](NC(=O)c1cc(C(=O)N[C@@H](Cc2ccccc2)[C@H](O)CNC2CC2)cc(N2CCCS2(=O)=O)c1)c1ccccc1 | 5.75 | 6.85 | – |
| C[C@@H](NC(=O)c1cc(C(=O)N[C@@H](Cc2ccccc2)[C@H](O)CNC2CC2)cc(-c2ccc(Cl)cc2)c1)c1ccccc1 | 6.09 | < 4.00 | – |
| C[C@@H](NC(=O)c1cc(C(=O)N[C@@H](Cc2ccccc2)[C@H](O)CNC2CC2)cc2c1CCCCO2)c1ccc(F)cc1 | 6.58 | 5.71 | – |
| C[C@@H](NC(=O)c1cc(C(=O)N[C@@H](Cc2ccccc2)[C@H](O)CNC2CC2)cc(-c2cn(Cc3ccccc3)nn2)c1)c1ccccc1 | 5.90 | < 4.00 | – |
| C[C@@H](NC(=O)c1cc(C#Cc2ccccc2)cc(C(=O)N[C@@H](Cc2ccccc2)[C@H](O)CNC2CC2)c1)c1ccccc1 | 5.95 | < 4.00 | – |
| C[C@@H](NC(=O)c1cc(C(=O)N[C@@H](Cc2ccccc2)[C@H](O)CNC2CC2)cc2c1CCCO2)c1ccc(F)cc1 | 6.13 | 5.68 | – |
| Cc1cc2c(C(=O)N[C@@H](Cc3ccccc3)[C@H](O)CNC3CC3)cc(C(=O)N[C@H](C)c3ccccc3)cc2o1 | 6.00 | < 4.00 | – |
| C[C@@H](NC(=O)c1cc2c(c(C(=O)N[C@@H](Cc3ccccc3)[C@H](O)CNC3CC3)c1)CCCCO2)c1ccccc1 | 7.05 | < 4.00 | – |
| C[C@@H](NC(=O)c1cc(C(=O)N[C@@H](Cc2ccccc2)[C@H](O)CNC2CC2)cc(-c2ccsc2)c1)c1ccccc1 | 5.65 | < 4.00 | – |
| C[C@@H](NC(=O)c1cc(C(=O)N[C@@H](Cc2ccccc2)[C@H](O)CNC2CC2)cc2c1CCCO2)c1ccccc1 | 7.20 | < 4.00 | 65% |
| C[C@@H](NC(=O)c1cc(C(=O)N[C@@H](Cc2ccccc2)[C@H](O)CNC2CC2)cc2c1CCCCO2)c1ccccc1 | 7.25 | < 4.00 | 35% |
| COc1cc(C(=O)N[C@@H](Cc2ccccc2)[C@H](O)CNC2CC2)cc(C(=O)N[C@H](C)c2ccccc2)c1 | 5.60 | < 4.00 | – |
| C[C@@H](NC(=O)c1cc(O)cc(C(=O)N[C@@H](Cc2ccccc2)[C@H](O)CNC2CC2)c1)c1ccccc1 | 5.80 | < 4.00 | – |
| C[C@@H](NC(=O)c1cc(C(=O)N[C@@H](Cc2ccccc2)[C@H](O)CNC2CC2)cc(N2CCCCS2(=O)=O)c1)c1ccccc1 | 6.80 | 6.60 | – |
| Cc1cc2c(C(=O)N[C@H](C)c3ccccc3)cc(C(=O)N[C@@H](Cc3ccccc3)[C@H](O)CNC3CC3)cc2o1 | 6.28 | < 4.00 | – |
| C[C@@H](NC(=O)c1cc2c(c(C(=O)N[C@@H](Cc3ccccc3)[C@H](O)CNC3CC3)c1)CCCO2)c1ccccc1 | 6.95 | < 4.00 | – |
| C#Cc1cc(C(=O)N[C@@H](Cc2ccccc2)[C@H](O)CNC2CC2)cc(C(=O)N[C@H](C)c2ccccc2)c1 | 6.05 | < 4.00 | – |
